Key:
Assay in all cases: kinome screen (33PanQinase)
Format in all cases: biochemical
ASK1 = biological target: T1, ASK1 (Homo sapiens, UniProt Q99683)
T1 construct: purchased Reaction Biology Europe GmbH (formerly ProQinase)
T1 sequence (Q99683 1-1374): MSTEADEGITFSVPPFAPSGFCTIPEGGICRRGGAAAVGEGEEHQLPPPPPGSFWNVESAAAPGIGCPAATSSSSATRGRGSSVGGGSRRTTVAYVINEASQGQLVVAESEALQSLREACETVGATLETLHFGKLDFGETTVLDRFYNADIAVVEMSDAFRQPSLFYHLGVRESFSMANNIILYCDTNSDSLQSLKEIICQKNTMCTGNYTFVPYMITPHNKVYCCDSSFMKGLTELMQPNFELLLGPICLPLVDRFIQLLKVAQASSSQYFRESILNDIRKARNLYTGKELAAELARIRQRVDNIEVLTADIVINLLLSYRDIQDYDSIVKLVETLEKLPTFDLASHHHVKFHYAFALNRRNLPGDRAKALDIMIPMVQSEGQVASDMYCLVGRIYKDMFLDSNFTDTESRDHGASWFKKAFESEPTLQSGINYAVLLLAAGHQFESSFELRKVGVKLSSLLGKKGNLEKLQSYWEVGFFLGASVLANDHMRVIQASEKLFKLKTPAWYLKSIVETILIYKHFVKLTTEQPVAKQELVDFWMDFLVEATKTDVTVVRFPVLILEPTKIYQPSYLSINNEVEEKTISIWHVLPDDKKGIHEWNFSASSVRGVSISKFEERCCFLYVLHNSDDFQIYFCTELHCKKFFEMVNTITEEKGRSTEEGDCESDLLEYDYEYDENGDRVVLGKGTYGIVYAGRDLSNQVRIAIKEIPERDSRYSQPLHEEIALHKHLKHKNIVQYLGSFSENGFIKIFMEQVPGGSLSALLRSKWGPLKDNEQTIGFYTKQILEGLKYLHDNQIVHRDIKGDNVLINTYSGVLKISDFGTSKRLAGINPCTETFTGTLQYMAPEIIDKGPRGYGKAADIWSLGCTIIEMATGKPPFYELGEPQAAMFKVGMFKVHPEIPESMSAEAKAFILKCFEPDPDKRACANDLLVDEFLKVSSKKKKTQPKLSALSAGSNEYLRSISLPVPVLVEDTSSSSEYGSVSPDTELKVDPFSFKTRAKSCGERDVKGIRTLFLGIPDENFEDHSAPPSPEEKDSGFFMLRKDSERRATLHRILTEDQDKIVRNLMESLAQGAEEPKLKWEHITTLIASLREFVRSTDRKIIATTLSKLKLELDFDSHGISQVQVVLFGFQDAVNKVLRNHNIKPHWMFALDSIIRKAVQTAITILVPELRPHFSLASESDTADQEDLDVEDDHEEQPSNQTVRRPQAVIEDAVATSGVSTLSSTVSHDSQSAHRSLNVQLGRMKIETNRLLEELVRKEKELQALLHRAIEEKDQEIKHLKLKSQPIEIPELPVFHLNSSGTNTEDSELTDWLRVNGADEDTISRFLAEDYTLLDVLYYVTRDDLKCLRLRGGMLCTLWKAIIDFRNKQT
Protocol: (§1) The Kinome Screening was performed by Reaction Biology Europe GmbH (http://reactionbiology.com; Freiburg i. Br., Germany).

EPHA8 = biological target: T2, EPHA8 (Homo sapiens, UniProt P29322)
T2 construct: purchased Reaction Biology Europe GmbH (formerly ProQinase)
T2 sequence (P29322 28-1005): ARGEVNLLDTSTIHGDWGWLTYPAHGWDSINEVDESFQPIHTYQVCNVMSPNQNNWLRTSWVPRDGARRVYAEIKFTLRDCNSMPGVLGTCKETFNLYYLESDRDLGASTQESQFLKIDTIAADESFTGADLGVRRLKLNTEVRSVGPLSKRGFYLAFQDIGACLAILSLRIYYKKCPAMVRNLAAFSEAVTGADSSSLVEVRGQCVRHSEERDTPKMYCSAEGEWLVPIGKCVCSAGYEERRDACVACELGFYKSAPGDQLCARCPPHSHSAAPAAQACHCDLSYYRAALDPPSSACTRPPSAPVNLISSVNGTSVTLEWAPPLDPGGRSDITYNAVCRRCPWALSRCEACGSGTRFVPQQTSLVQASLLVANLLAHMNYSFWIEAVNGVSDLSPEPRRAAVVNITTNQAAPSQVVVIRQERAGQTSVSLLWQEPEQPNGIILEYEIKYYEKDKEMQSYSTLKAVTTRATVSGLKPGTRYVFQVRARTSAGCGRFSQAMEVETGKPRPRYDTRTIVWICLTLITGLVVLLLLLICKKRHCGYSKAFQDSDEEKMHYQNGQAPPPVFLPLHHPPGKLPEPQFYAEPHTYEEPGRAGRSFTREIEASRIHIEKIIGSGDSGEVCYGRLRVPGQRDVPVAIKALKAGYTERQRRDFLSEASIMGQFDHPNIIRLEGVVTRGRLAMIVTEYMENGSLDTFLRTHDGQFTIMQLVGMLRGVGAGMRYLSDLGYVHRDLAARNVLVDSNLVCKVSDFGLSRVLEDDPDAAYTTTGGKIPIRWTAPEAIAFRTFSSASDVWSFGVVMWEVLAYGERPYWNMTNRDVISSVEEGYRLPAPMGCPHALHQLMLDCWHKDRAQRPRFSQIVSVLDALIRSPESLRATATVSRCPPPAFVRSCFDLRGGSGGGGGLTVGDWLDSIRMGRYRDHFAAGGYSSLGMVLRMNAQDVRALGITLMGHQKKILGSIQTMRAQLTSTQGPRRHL
Protocol: as §1

PKN3 = biological target: T3, PKN3 (Homo sapiens, UniProt Q6P5Z2)
T3 construct: purchased Reaction Biology Europe GmbH (formerly ProQinase)
Protocol: as §1

PLK3 = biological target: T4, PLK3 (Homo sapiens, UniProt Q9H4B4)
T4 construct: purchased Reaction Biology Europe GmbH (formerly ProQinase)
Protocol: as §1

VRK1 = biological target: T5, VRK1 (Homo sapiens, UniProt Q99986)
T5 construct: purchased Reaction Biology Europe GmbH (formerly ProQinase)
T5 sequence (Q99986 1-396): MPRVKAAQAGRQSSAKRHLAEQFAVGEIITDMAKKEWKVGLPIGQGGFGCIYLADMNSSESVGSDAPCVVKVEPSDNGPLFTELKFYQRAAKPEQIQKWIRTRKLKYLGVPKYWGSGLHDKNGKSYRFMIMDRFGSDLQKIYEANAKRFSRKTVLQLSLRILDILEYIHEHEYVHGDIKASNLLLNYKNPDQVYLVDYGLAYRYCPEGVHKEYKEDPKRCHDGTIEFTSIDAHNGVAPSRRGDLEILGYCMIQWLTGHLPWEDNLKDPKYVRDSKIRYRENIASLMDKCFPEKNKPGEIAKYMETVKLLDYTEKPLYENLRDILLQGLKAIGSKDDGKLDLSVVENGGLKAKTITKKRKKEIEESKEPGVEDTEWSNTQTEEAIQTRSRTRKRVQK
Protocol: as §1

T3 sequence (Q6P5Z2 whole entry): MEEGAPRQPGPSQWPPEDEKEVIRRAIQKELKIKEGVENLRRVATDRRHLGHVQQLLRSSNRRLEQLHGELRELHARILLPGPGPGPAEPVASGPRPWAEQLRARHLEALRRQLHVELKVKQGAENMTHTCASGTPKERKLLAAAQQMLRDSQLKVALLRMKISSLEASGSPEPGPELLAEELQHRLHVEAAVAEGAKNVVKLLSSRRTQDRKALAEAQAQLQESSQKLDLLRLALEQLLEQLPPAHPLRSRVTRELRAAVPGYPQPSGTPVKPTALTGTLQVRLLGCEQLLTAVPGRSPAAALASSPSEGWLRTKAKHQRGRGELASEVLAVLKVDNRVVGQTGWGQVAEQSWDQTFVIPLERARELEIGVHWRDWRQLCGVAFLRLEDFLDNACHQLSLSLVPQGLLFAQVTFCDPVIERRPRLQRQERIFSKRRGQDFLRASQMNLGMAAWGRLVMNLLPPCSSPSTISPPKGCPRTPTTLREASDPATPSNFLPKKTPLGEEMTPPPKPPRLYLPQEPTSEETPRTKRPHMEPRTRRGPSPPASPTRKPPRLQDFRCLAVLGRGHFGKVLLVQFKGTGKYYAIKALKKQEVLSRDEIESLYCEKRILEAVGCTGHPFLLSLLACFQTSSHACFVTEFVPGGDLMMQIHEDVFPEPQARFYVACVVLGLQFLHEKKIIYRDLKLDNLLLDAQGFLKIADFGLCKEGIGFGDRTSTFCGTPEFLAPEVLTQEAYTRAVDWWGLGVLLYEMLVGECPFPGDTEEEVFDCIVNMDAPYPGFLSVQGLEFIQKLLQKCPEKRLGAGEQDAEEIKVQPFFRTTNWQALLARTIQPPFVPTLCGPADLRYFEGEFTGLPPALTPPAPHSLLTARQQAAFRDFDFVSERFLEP
T4 sequence (Q9H4B4 whole entry): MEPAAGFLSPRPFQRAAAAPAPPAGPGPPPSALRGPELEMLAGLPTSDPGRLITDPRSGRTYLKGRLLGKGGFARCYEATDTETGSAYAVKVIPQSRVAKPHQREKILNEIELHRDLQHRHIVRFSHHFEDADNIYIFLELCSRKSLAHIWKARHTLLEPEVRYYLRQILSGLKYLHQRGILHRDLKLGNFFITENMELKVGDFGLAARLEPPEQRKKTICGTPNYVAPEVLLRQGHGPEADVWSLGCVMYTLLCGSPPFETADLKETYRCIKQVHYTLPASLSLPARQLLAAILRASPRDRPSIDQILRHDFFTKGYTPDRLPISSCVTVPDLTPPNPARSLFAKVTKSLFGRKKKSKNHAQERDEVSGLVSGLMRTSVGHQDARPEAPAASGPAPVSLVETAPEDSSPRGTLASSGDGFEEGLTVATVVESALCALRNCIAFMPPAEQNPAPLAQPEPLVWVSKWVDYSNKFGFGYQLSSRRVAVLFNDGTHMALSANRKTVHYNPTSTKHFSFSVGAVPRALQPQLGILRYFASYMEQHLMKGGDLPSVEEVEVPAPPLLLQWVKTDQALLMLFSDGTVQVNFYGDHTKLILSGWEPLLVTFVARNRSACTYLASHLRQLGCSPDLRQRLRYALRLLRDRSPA

SMILES | residual kinase activity (ASK1; 0.03 µM) | residual kinase activity (ASK1; 0.3 µM) | residual kinase activity (EPHA8; 0.03 µM) | residual kinase activity (EPHA8; 0.3 µM) | residual kinase activity (PKN3; 0.03 µM) | residual kinase activity (PKN3; 0.3 µM) | residual kinase activity (PLK3; 0.03 µM) | residual kinase activity (PLK3; 0.3 µM) | residual kinase activity (VRK1; 0.03 µM) | residual kinase activity (VRK1; 0.3 µM) | residual kinase activity (ASK1; 3 µM) | residual kinase activity (EPHA8; 3 µM) | residual kinase activity (PKN3; 3 µM) | residual kinase activity (PLK3; 3 µM) | residual kinase activity (VRK1; 3 µM)
COc1ccnc2[nH]cc(-c3cc(N)nc(N)c3)c12 [meriolin 16] | 97 % of control | 85 % of control | 119 % of control | 107 % of control | 83 % of control | 74 % of control | 95 % of control | 92 % of control | 114 % of control | 108 % of control |  |  |  |  | 
c1ccc(CNc2cc(-c3c[nH]c4ncccc34)ccn2)cc1 [meriolin 36] |  | 50 % of control |  | 113 % of control |  | 27 % of control |  | 97 % of control |  | 104 % of control | 15 % of control | 94 % of control | 3 % of control | 87 % of control | 61 % of control

Source: article PMC11167047 (Cell Death Discovery, 2024)
